The values below come from patent US4755388A, “Liposome-encapsulated 5-fluoropyrimidines and methods for their use” (The Regents of the University of California, priority 1986, dated 1988).

Like-named read-outs stand apart in the source and are kept apart here. A value given as a limit tells only on which side of the number the result lay.

In general, solubility refers to the dissolved amount per volume that the medium holds.

Data set [1] can be described thus: Aqueous solubility. Format: physicochemical. As to conditions: water, read-out: maximum aqueous solubility.
The test system of data set [2] is CV1-P cells. In words: Growth inhibition by 5-fluoroorotate, CV1-P cells (72 hours). The data set is classed as cell-based. As to conditions: free drug mean of 3 determinations, liposomes from individual growth inhibition curves, read-out: IC50 (concentration of the drug that inhibits cell growth by 50%). As for the experimental part:
(§1) All phospholipids (Avanti, Birmingham, Ala.) were used without further purification. Cholesterol (Sigma, St. Louis, Mo.) was recrystallized four times with methanol. All lipids were stored under argon in chloroform solution in sealed ampoules until use. Liposomes were prepared by reverse-phase evaporation (Szoka and Papahadjopoulos (1978) Proc. Natl. Acad. Sci. U.S.A. 75:4194-4198), and extrusion (Szoka et al. (1980) Biochem. et Biophys. Acta. 601:559-571). Small liposomes were made by extensive sonication of lipid suspensions. The unencapsulated drug was removed by gel filtration with Sephadex® G75 (Pharmacia). Lipid concentration was measured by phosporous analysis as described by Bartlett (1959) J. Biol. chem. 234:466-468. The encapsulated drug was measured using a molar extinction coefficient of 7100 in 0.1N HCl. A liposome sample was extracted (Bligh et al. (1959) Can. J. Biochem. Physiol. 37:[…]), the upper phase was acidified with HCl, and its absorbance was meausred. L929 murine fibroblasts and CV1-P cells were obtained and grown as previously described by Heath et al. (1983) Proc. Natl. Acad. Sci. U.S.A. 80:1377-1381 and Fraley et al. (1980) J. Biol. Chem. 255:10431-10435, respectively. The IC50 of the liposome preparations was measured by growth inhibition as previously described by Heath et al. (1983) supra. […]

Data set [3] relates to L929 murine fibroblasts. Kind of data set: Growth inhibition by 5-fluoroorotate, L929 murine fibroblasts (48 hours). Format: cell-based. As to conditions: free drug mean of 4 determinations, liposomes from individual growth inhibition curves, read-out: IC50 (concentration of the drug that inhibits cell growth by 50%). The protocol:
as §1

Regarding `O=C([O-])c1[nH]c(=O)[nH]c(=O)c1F.[Li+]` [lithium salt, lithium 5-fluoroorotate], the solubility in data set [1] was at least 50 mM.
Still for that read-out and setting: under `O=C([O-])c1[nH]c(=O)[nH]c(=O)c1F.[Na+]` [Sodium 5-fluoroorotate] stands 15 mM.
As for `O=C(O)c1[nH]c(=O)[nH]c(=O)c1F` [Free Drug, 5-fluoroorotate], the IC50 in data set [2] is 7000 nM; in data set [3] (L929, 48 hours), 1100 ± 300 nM; in data set [3] (Mus musculus, L929, 48 h), 1000 nM.
